According to US10174047B2, “Thienodiazepine derivatives or pharmaceutically acceptable salts thereof, and pharmaceutical composition including the same as an active ingredient” (Industry-University Cooperation Foundation Hanyang …, priority 2015, dated 2019):
Read-outs that look alike come from different tables or passages of the source.

Tested on: A375P cell line (melanoma)
Experiment: Proliferation inhibition activity against A375P cell line (MTT assay)
Format: cell-based
Conditions: A375P melanoma cells; for GI50: MTT assay; for effects against A375P: statement in words
Protocol: Measurement of Proliferation Inhibition Activity Against A375P Cell Line (Melanoma)
An A375P cell line purchased from ATCC was cultured in a DMEM medium [containing 10% FBS, 1% penicillin/streptomycin] at 37° C. in the presence of 5% CO2. The cultured A375P cell line was taken using 0.05% trypsin-0.02% EDTA, and seeded into a 96-well plate at a density of 5×10^3 cells per well.
Cell viability was measured using an MTT [3-(4,5-dimethylthiazol-2-yl)-2,5-diphenyltetrazolium bromide] assay (CellTiter 96 Assay, Promega) as follows. 15 μl of dye was placed per well, the cells were cultured for 2 hours, and then treated with 100 μl of a stop solution, and after 24 hours, absorbance was measured. One day after plating, they were treated with compounds. For treatment with compounds, […] of stock was prepared, and serially diluted to one-third in dimethyl sulfoxide (DMSO) to prepare a 12-point test compound plate, and 0.5 μl was added (final concentration DMSO 0.5%).
In the following Tables 1 to 3, in a case of GI50 being 10 to 30 μM, it was indicated as (+), in a case of it being 1 to 10 μM, it was indicated as (++), and in case of being less than 1 μM, it was indicated as (+++).

GI50 (read-out: A375P (GI50)) [µM] | GI50 (read-out: GI50 value against A375P) [µM] | SMILES | effects against A375P
10 to 30 |  | CC(=O)N1CCC(C(=O)Nc2ccc(C3=Nc4cscc4NC(=O)C3)cc2)CC1 [Example 8, 1-acetyl-N-(4-(2-oxo-2,3-dihydro-1H-thieno[3,4-b][1,4]diazepine-4-yl)phenyl)piperidine-4-carboxamide] | 
< 1 |  | O=C1CC(c2ccc(NC(=O)Nc3cc(Cl)cc(Cl)c3)cc2)=Nc2cscc2N1 [Example 44, 1-(3,5-dichlorophenyl)-3-(4-(2-oxo-2,3-dihydro-1H-thieno[3,4-b][1,4]diazepine-4-yl)phenyl)urea] | significant effects
< 1 |  | O=C1CC(c2cccc(NC(=O)Nc3cccc(Cl)c3)c2)=Nc2cscc2N1 [Example 48, 1-(3-chlorophenyl)-3-(3-(2-oxo-2,3-dihydro-1H-thieno[3,4-b][1,4]diazepine-4-yl)phenyl)urea] | significant effects
1 to 10 |  | O=C1CC(c2ccc(NC(=O)c3cnn(-c4ccccc4)c3C(F)(F)F)cc2)=Nc2cscc2N1 [Example 7, N-(4-(2-oxo-2,3-dihydro-1H-thieno[3,4-b][1,4]diazepine-4-yl)phenyl)-1-phenyl-5-(trifluoromethyl)-1H-pyrazole-4-carboxamide] | 
10 to 30 |  | Cc1c(C)c2c(c(C)c1O)CC[C@](C)(C(=O)Nc1cccc(C3=Nc4cscc4NC(=O)C3)c1)O2 [Example 38, (R)-6-hydroxy-2,5,7,8-tetramethyl-N-(3-(2-oxo-2,3-dihydro-1H-thieno[3,4-b][1,4]diazepine-4-yl)phenyl)chroman-2-carboxamide] | 
10 to 30 |  | O=C1CC(c2ccc(NC(=O)c3ccncc3)cc2)=Nc2cscc2N1 [Example 10, N-(4-(2-oxo-2,3-dihydro-1H-thieno[3,4-b][1,4]diazepine-4-yl)phenyl)isonicotinamide] | 
10 to 30 |  | O=C1CC(c2ccc(NC(=O)Nc3cccc(Cl)c3)cc2)=Nc2cscc2N1 [Example 41, 1-(3-chlorophenyl)-3-(4-(2-oxo-2,3-dihydro-1H-thieno[3,4-b][1,4]diazepine-4-yl)phenyl)urea] | 
10 to 30 |  | O=C1CC(c2cccc(NC(=O)c3cnc4ccccc4c3)c2)=Nc2cscc2N1 [Example 37, N-(3-(2-oxo-2,3-dihydro-1H-thieno[3,4-b][1,4]diazepine-4-yl)phenyl)quinoline-3-carboxamide] | 
 | 2.74 | CNC(=O)c1cc(Oc2ccc(NC(=O)Nc3ccc(Cl)c(C(F)(F)F)c3)cc2)ccn1 [Sorafenib, reference compound] | 
10 to 30 |  | O=C1CC(c2cccc(NC(=O)Nc3ccccc3F)c2)=Nc2cscc2N1 [Example 52, 1-(2-fluorophenyl)-3-(3-(2-oxo-2,3-dihydro-1H-thieno[3,4-b][1,4]diazepine-4-yl)phenyl)urea] | 
< 1 |  | O=C1CC(c2ccc(NC(=O)c3cc(N4CCOCC4)cc(C(F)(F)F)c3)cc2)=Nc2cscc2N1 [Example 3, 3-morpholino-N-(4-(2-oxo-2,3-dihydro-1H-thieno[3,4-b][1,4]diazepine-4-yl)phenyl)-5-(trifluoromethyl)benzamide] | significant effects
10 to 30 |  | Cc1cc(C)cc(C(=O)Nc2ccc(C3=Nc4cscc4NC(=O)C3)cc2)c1 [Example 17, 3,5-dimethyl-N-(4-(2-oxo-2,3-dihydro-1H-thieno[3,4-b][1,4]diazepine-4-yl)phenyl)benzamide] | 
1 to 10 |  | O=C1CC(c2cccc(NC(=O)Nc3ccc(Cl)c(C(F)(F)F)c3)c2)=Nc2cscc2N1 [Example 46, 1-(4-chloro-3-(trifluoromethyl)phenyl)-3-(3-(2-oxo-2,3-dihydro-1H-thieno[3,4-b][1,4]diazepine-4-yl)phenyl)urea] | 
1 to 10 |  | O=C1CC(c2cccc(NC(=O)Nc3ccc(Cl)cc3)c2)=Nc2cscc2N1 [Example 47, 1-(4-chlorophenyl)-3-(3-(2-oxo-2,3-dihydro-1H-thieno[3,4-b][1,4]diazepine-4-yl)phenyl)urea] | 
10 to 30 |  | O=C1CC(c2cccc(NC(=O)c3ccc(-c4ccccc4)cc3)c2)=Nc2cscc2N1 [Example 22, N-(3-(2-oxo-2,3-dihydro-1H-thieno[3,4-b][1,4]diazepine-4-yl)phenyl)biphenyl-4-carboxamide] | 
10 to 30 |  | O=C1CC(c2cccc(NC(=O)c3cnccn3)c2)=Nc2cscc2N1 [Example 28, N-(3-(2-oxo-2,3-dihydro-1H-thieno[3,4-b][1,4]diazepine-4-yl)phenyl)pyrazine-2-carboxamide] | 
10 to 30 |  | O=C1CC(c2ccc(NC(=O)c3cnccn3)cc2)=Nc2cscc2N1 [Example 11, N-(4-(2-oxo-2,3-dihydro-1H-thieno[3,4-b][1,4]diazepine-4-yl)phenyl)pyrazine-2-carboxamide] | 

GI50 (read-out: A375P (GI50)) [µM] | GI50 (read-out: GI50 value against A375P) [µM] | SMILES | effects against A375P
10 to 30 |  | O=C(Cc1ccc(-c2ccccc2)cc1)Nc1cccc(C2=Nc3cscc3NC(=O)C2)c1 [Example 33, 2-(biphenyl-4-yl)-N-(3-(2-oxo-2,3-dihydro-1H-thieno[3,4-b][1,4]diazepine-4-yl)phenyl)acetamide] | 
10 to 30 |  | O=C1CC(c2ccc(NC(=O)Nc3ccccc3F)cc2)=Nc2cscc2N1 [Example 45, 1-(2-fluorophenyl)-3-(4-(2-oxo-2,3-dihydro-1H-thieno[3,4-b][1,4]diazepine-4-yl)phenyl)urea] | 
1 to 10 |  | O=C1CC(c2cccc(NC(=O)Nc3ccc(Cl)c(Cl)c3)c2)=Nc2cscc2N1 [Example 50, 1-(3,4-dichlorophenyl)-3-(3-(2-oxo-2,3-dihydro-1H-thieno[3,4-b][1,4]diazepine-4-yl)phenyl)urea] | 
10 to 30 |  | O=C1CC(c2cccc(NC(=O)c3ccc4ccccc4n3)c2)=Nc2cscc2N1 [Example 36, N-(3-(2-oxo-2,3-dihydro-1H-thieno[3,4-b][1,4]diazepine-4-yl)phenyl)quinoline-2-carboxamide] | 
10 to 30 |  | O=C1CC(c2cccc(NC(=O)c3ccncc3)c2)=Nc2cscc2N1 [Example 27, N-(3-(2-oxo-2,3-dihydro-1H-thieno[3,4-b][1,4]diazepine-4-yl)phenyl)isonicotinamide] | 
10 to 30 |  | O=C(Cc1c[nH]c2ccccc12)Nc1cccc(C2=Nc3cscc3NC(=O)C2)c1 [Example 31, 2-(1H-indol-3-yl)-N-(3-(2-oxo-2,3-dihydro-1H-thieno[3,4-b][1,4]diazepine-4-yl)phenyl)acetamide] | 
10 to 30 |  | O=C1CC(c2cccc(NC(=O)c3cnn(-c4ccccc4)c3C(F)(F)F)c2)=Nc2cscc2N1 [Example 24, N-(3-(2-oxo-2,3-dihydro-1H-thieno[3,4-b][1,4]diazepine-4-yl)phenyl)-1-phenyl-5-(trifluoromethyl)-1H-pyrazole-4-carboxamide] | 
10 to 30 |  | O=C(Cc1ccccc1F)Nc1cccc(C2=Nc3cscc3NC(=O)C2)c1 [Example 35, 2-(2-fluorophenyl)-N-(3-(2-oxo-2,3-dihydro-1H-thieno[3,4-b][1,4]diazepine-4-yl)phenyl)acetamide] | 
< 1 |  | O=C1CC(c2cccc(NC(=O)c3cc(N4CCOCC4)cc(C(F)(F)F)c3)c2)=Nc2cscc2N1 [Example 20, 3-morpholino-N-(3-(2-oxo-2,3-dihydro-1H-thieno[3,4-b][1,4]diazepine-4-yl)phenyl)-5-(trifluoromethyl)benzamide] | significant effects
10 to 30 |  | O=C1CC(c2cccc(NC(=O)c3ccccc3-c3ccccc3)c2)=Nc2cscc2N1 [Example 23, N-(3-(2-oxo-2,3-dihydro-1H-thieno[3,4-b][1,4]diazepine-4-yl)phenyl)biphenyl-2-carboxamide] | 
10 to 30 |  | CC(=O)N1CCC(C(=O)Nc2cccc(C3=Nc4cscc4NC(=O)C3)c2)CC1 [Example 25, 1-acetyl-N-(3-(2-oxo-2,3-dihydro-1H-thieno[3,4-b][1,4]diazepine-4-yl)phenyl)piperidine-4-carboxamide] | 
10 to 30 |  | CN1CCN(c2cc(C(=O)Nc3ccc(C4=Nc5cscc5NC(=O)C4)cc3)cc(C(F)(F)F)c2)CC1 [Example 12, 3-(4-methylpiperazine-1-yl)-N-(4-(2-oxo-2,3-dihydro-1H-thieno[3,4-b][1,4]diazepine-4-yl)phenyl)-5-(trifluoromethyl)benzamide] | 
10 to 30 |  | O=C(Cc1c[nH]c2ccccc12)Nc1ccc(C2=Nc3cscc3NC(=O)C2)cc1 [Example 14, 2-(1H-indol-3-yl)-N-(4-(2-oxo-2,3-dihydro-1H-thieno[3,4-b][1,4]diazepine-4-yl)phenyl)acetamide] | 
1 to 10 |  | O=C1CC(c2ccc(NC(=O)Nc3ccc(Cl)c(Cl)c3)cc2)=Nc2cscc2N1 [Example 42, 1-(3,4-dichlorophenyl)-3-(4-(2-oxo-2,3-dihydro-1H-thieno[3,4-b][1,4]diazepine-4-yl)phenyl)urea] | 
< 1 |  | O=C1CC(c2ccc(NC(=O)c3ccc(-c4ccccc4)cc3)cc2)=Nc2cscc2N1 [Example 5, N-(4-(2-oxo-2,3-dihydro-1H-thieno[3,4-b][1,4]diazepine-4-yl)phenyl)biphenyl-4-carboxamide] | significant effects
< 1 |  | CCN1CCN(Cc2ccc(NC(=O)Nc3cccc(C4=Nc5cscc5NC(=O)C4)c3)cc2C(F)(F)F)CC1 [Example 49, 1-(4-((4-ethylpiperazine-1-yl)methyl)-3-(trifluoromethyl)phenyl)-3-(3-(2-oxo-2,3-dihydro-1H-thieno[3,4-b][1,4]diazepine-4-yl)phenyl)urea] | significant effects
